This series relates to CCRIS mutagenicity, Ames/micronucleus/aberration tests. The experiment in a line: CCRIS mutagenicity studies.
Where [1] appears, read: Test System: AMES SALMONELLA TYPHIMURIUM, Strain/Indicator: TA98, Metabolic Activation: NONE, Method: STANDARD PLATE.
Where [2] appears, read: Test System: AMES SALMONELLA TYPHIMURIUM, Strain/Indicator: TA98, Metabolic Activation: RAT, LIVER, S-9, AROCLOR 1254, Method: STANDARD PLATE.
The mark [3] stands for this setting: Test System: AMES SALMONELLA TYPHIMURIUM, Strain/Indicator: TA100, Metabolic Activation: NONE, Method: STANDARD PLATE.
Setting [4] is: Test System: AMES SALMONELLA TYPHIMURIUM, Strain/Indicator: TA100, Metabolic Activation: RAT, LIVER, S-9, AROCLOR 1254, Method: STANDARD PLATE.
[5] abbreviates: Test System: AMES SALMONELLA TYPHIMURIUM, Strain/Indicator: TA1535, Metabolic Activation: NONE, Method: STANDARD PLATE.
Setting [6] is: Test System: AMES SALMONELLA TYPHIMURIUM, Strain/Indicator: TA1538, Metabolic Activation: NONE, Method: STANDARD PLATE.

The source made the active and inactive calls. No rule for the calls is given here.

As to `Nc1cccc2ncc(F)cc12`, where the note is “Test System: AMES SALMONELLA TYPHIMURIUM, Strain/Indicator: TA100, Metabolic Activation: RAT, LIVER, S-9, PHENOBARBITAL AND 5,6-BENZOFLAVONE, Method: PREINCUBATION”, the mutagenic call was “active; positive”.
In the case of `O=C(/C=C/c1ccc(Br)cc1)c1ccccc1`, the mutagenic call by setting is: under setting [1], “inactive; negative”; under setting [2], “inactive; negative”; under setting [3], “inactive; negative”; under setting [4], “inactive; negative”.
Consider `CC(C)c1ccc(/C=C/c2ccc(N)cc2)cc1`, for which the mutagenic call was “inactive; negative” under setting [1]; “active; positive” (Test System: AMES SALMONELLA TYPHIMURIUM, Strain/Indicator: TA98, Metabolic Activation: RAT, LIVER, S9, AROCLOR, Method: STANDARD PLATE); “inactive; negative” under setting [3]; “active; positive” (Test System: AMES SALMONELLA TYPHIMURIUM, Strain/Indicator: TA100, Metabolic Activation: RAT, LIVER, S9, AROCLOR, Method: STANDARD PLATE).
As for `ClC[C@@]1(C(Cl)Cl)C2[C@@H](Cl)[C@H](Cl)C1(C(Cl)Cl)[C@@H](Cl)[C@@H]2Cl`, where the note is “Test System: AMES SALMONELLA TYPHIMURIUM, Strain/Indicator: TA100, Metabolic Activation: NONE, Method: PREINCUBATION”, the mutagenic call was “inactive; negative”.
`CCn1cc(C(=O)O)c(=O)c2cc3c(cc21)OCO3`: the mutagenic call reads like this: (Test System: AMES SALMONELLA TYPHIMURIUM, Strain/Indicator: TA102, Metabolic Activation: NONE, Method: STANDARD PLATE) “active; positive”; (Test System: AMES SALMONELLA TYPHIMURIUM, Strain/Indicator: TA2638, Metabolic Activation: NONE, Method: STANDARD PLATE) “active; positive”; (Test System: E. COLI, Strain/Indicator: WP2 (PKM101), Metabolic Activation: NONE, Method: STANDARD PLATE) “active; positive”; (Test System: E. COLI, Strain/Indicator: WP2 UVRA (PKM101), Metabolic Activation: NONE, Method: STANDARD PLATE) “active; positive”.
For the compound `[O]=[Cr][O][Cr]=[O]`, the mutagenic call (Test System: CHINESE HAMSTER V-79, Strain/Indicator: V-79/6-THIOGUANINE, Metabolic Activation: NONE) was “active; positive”.
In the case of `O=C/C(=C(\Cl)C(=O)O)C(Cl)Cl`, the mutagenic call (Test System: AMES SALMONELLA TYPHIMURIUM, Strain/Indicator: TA97, Metabolic Activation: NONE, Method: STANDARD PLATE) is “inactive; negative”; the mutagenic call (Test System: AMES SALMONELLA TYPHIMURIUM, Strain/Indicator: TA97, Metabolic Activation: RAT, LIVER, S-9, PHENOBARBITAL, Method: STANDARD PLATE) was “inactive; negative”; the mutagenic call under setting [1] is “inactive; negative”; the mutagenic call (Test System: AMES SALMONELLA TYPHIMURIUM, Strain/Indicator: TA98, Metabolic Activation: RAT, LIVER, S-9, PHENOBARBITAL, Method: STANDARD PLATE) is “inactive; negative”; the mutagenic call under setting [3] was “active; positive”; the mutagenic call (Test System: AMES SALMONELLA TYPHIMURIUM, Strain/Indicator: TA100, Metabolic Activation: RAT, LIVER, S-9, PHENOBARBITAL, Method: STANDARD PLATE) is “inactive; negative”.
On to `Cc1ccc2c(C)c3ccccc3c(C)c2c1`, for which the mutagenic call by setting is: under setting [1], “active; positive”; under setting [2], “active; positive”; under setting [3], “inactive; negative”; under setting [4], “active; positive”.
With `C=CCCCCCCCCCCCCC`, the mutagenic call reads like this: (Test System: AMES SALMONELLA TYPHIMURIUM, Strain/Indicator: TA98, Metabolic Activation: MOUSE, LIVER, S-9, Method: STANDARD PLATE) “inactive; negative”; under setting [1], “inactive; negative”; (Test System: AMES SALMONELLA TYPHIMURIUM, Strain/Indicator: TA100, Metabolic Activation: MOUSE, LIVER, S-9, Method: STANDARD PLATE) “inactive; negative”; under setting [3], “inactive; negative”; under setting [5], “inactive; negative”; under setting [6], “inactive; negative”.
On to `CCCCN(CCC)N=O`, for which the mutagenic call runs as follows: (Test System: AMES SALMONELLA TYPHIMURIUM, Strain/Indicator: TA100, Metabolic Activation: RAT, LIVER, S-9, KC500 OR PHENOBARBITAL, Method: LIQUID SUSPENSION) “active; positive”; (Test System: MOUSE LYMPHOMA, Strain/Indicator: L5178Y (TK+/TK-), Metabolic Activation: RAT, LIVER, S-9, AROCLOR 1254, Method: SUSPENSION/PLATE) “active; positive”.
Regarding `c1cc2ccc3cc4cccc5ccc6cc(c1)c2c3c6c54`, the mutagenic call under setting [4] is “active; positive”.
On to `O=Nc1ccc2c(c1)Cc1ccccc1-2`, for which the mutagenic call was “active; positive” under setting [1]; “active; positive” under setting [2]; “active; positive” (Test System: AMES SALMONELLA TYPHIMURIUM, Strain/Indicator: TA98, Metabolic Activation: S-9, Method: STANDARD PLATE); “active; positive” under setting [3]; “active; positive” (Test System: AMES SALMONELLA TYPHIMURIUM, Strain/Indicator: TA100, Metabolic Activation: S-9, Method: STANDARD PLATE); “active; positive” under setting [6].
For the compound `O=[N+]([O-])c1cc2cccc3c4c(c5cccc1c5c23)CCCC4`, the mutagenic call is “active; positive” (Test System: AMES SALMONELLA TYPHIMURIUM, Strain/Indicator: TA98, Metabolic Activation: NONE', Method: STANDARD PLATE) and “active; positive” under setting [3].
As for `O=[C]/C=C\C(=O)CC(=O)CC(=O)O`, the mutagenic call (Test System: CHINESE HAMSTER V-79, Strain/Indicator: V-79 (HGPRT)/6-THIOGUANINE, Metabolic Activation: NONE) was “inactive; negative”.
Turning to `Nc1cc(CCO)c(N)c([N+](=O)[O-])c1`, the mutagenic call is, setting by setting: under setting [1], “active; positive”; under setting [2], “active; positive”; under setting [3], “inactive; negative”; under setting [4], “active; positive”; under setting [5], “inactive; negative”; (Test System: AMES SALMONELLA TYPHIMURIUM, Strain/Indicator: TA1535, Metabolic Activation: RAT, LIVER, S-9, AROCLOR 1254, Method: STANDARD PLATE) “inactive; negative”. In addition, the mutagenic call runs as follows: (Test System: AMES SALMONELLA TYPHIMURIUM, Strain/Indicator: TA1537, Metabolic Activation: NONE, Method: STANDARD PLATE) “inactive; negative”; (Test System: AMES SALMONELLA TYPHIMURIUM, Strain/Indicator: TA1537, Metabolic Activation: RAT, LIVER, S-9, AROCLOR 1254, Method: STANDARD PLATE) “inactive; negative”; under setting [6], “active; positive”; (Test System: AMES SALMONELLA TYPHIMURIUM, Strain/Indicator: TA1538, Metabolic Activation: RAT, LIVER, S-9, AROCLOR 1254, Method: STANDARD PLATE) “active; positive”.
In the case of `CCCCON(OC(C)=O)C(=O)c1ccc(C(C)(C)C)cc1`, the mutagenic call under setting [3] was “active; positive” and the mutagenic call (Test System: AMES SALMONELLA TYPHIMURIUM, Strain/Indicator: TA100, Metabolic Activation: RAT, S-9, AROCLOR, Method: STANDARD PLATE) is “active; positive”.
Turning to `Cc1c(C)c([N+](=O)[O-])c(C(C)(C)C)c([N+](=O)[O-])c1C`, the mutagenic call runs as follows: (Test System: AMES SALMONELLA TYPHIMURIUM, Strain/Indicator: TA98, Metabolic Activation: RAT, LIVER, S-9, AROCLOR 1254, Method: PREINCUBATION) “inactive; negative”; under setting [2], “inactive; negative”; (Test System: AMES SALMONELLA TYPHIMURIUM, Strain/Indicator: TA100, Metabolic Activation: RAT, LIVER, S-9, AROCLOR 1254, Method: PREINCUBATION) “inactive; negative”; under setting [4], “inactive; negative”.

Source of the values: PubChem BioAssay AID1259407 (Chemical Carcinogenesis Research Information System (CCRIS), 2018).
